Results: patent publication US7332521B2, “Substituted indoles” (Wyeth, priority 2003, dated 2008)

Tests used:
[1] = target: T1, recombinant human plasminogen activator inhibitor-1 (PAI-1) (Homo sapiens, UniProt P05121); experiment: Primary screen for the PAI-1 inhibition (chromogenic tPA activity); type: biochemical; settings: pH 6.6 buffer; for inhibition at 10 µM: 10 μM test compound; for inhibition at 25 µM: 25 μM test compound
T1 construct: purchased Molecular Innovations, Royal Oak, Mich
Procedure: Test compounds are dissolved in DMSO at a final concentration of 10 mM, then diluted 100× in physiologic buffer. The inhibitory assay is initiated by the addition of the test compound (1-100 μM final concentration, maximum DMSO concentration of 0.2%) in a pH 6.6 buffer containing 140 nM recombinant human plasminogen activator inhibitor-1 (PAI-1; Molecular Innovations, Royal Oak, Mich.). Following a 1 hour incubation at room temperature, 70 nM of recombinant human tissue plasminogen activator (tPA) is added, and the combination of the test compound, PAI-1 and tPA is incubated for an additional 30 minutes. Following the second incubation, Spectrozyme-tPA (American Diagnostica, Greenwich, Conn.), a chromogenic substrate for tPA, is added and absorbance read at 405 nm at 0 and 60 minutes. Relative PAI-1 inhibition is equal to the residual tPA activity in the presence of the test compound and PAI-1. Control treatments include the complete inhibition of tPA by PAI-1 at the molar ratio employed (2:1), and the absence of any effect of the test compound on tPA alone.

human PAI-1 = human PAI-1 (Homo sapiens, UniProt P05121); experiment: Assay for determining IC50 of inhibition of PAI-1 (active PAI-1 bound to tPA-coated plate); type: binding; settings: pH 7.5 buffer
Procedure: This assay is based upon the non-SDS dissociable interaction between tPA and active PAI-1. Assay plates are initially coated with human tPA (10 μg/ml). Test compounds of the present invention are dissolved in DMSO at 10 mM, then diluted with physiologic buffer (pH 7.5) to a final concentration of 1-50 μM. Test compounds are incubated with human PAI-1 (50 ng/ml) for 15 minutes at room temperature. The tPA-coated plate is washed with a solution of 0.05% Tween 20 and 0.1% BSA, then the plate is blocked with a solution of 3% BSA. An aliquot of the subtituted indole/PAI-1 solution is then added to the tPA-coated plate, incubated at room temperature for 1 hour, and washed. Active PAI-1 bound to the plate is assessed by adding an aliquot of a 1:1000 dilution of the 33B8 monoclonal antibody against human PAI-1, and incubating the plate at room temperature for 1 hour (Molecular Innovations, Royal Oak, Mich.). […] The plate is incubated 45 minutes at room temperature, and color development is determined at OD405nm. The quantitation of active PAI-1 bound to tPA at varying concentrations of the test compound is used to determine the IC50. Results are analyzed using a logarithmic best-fit equation. The assay sensitivity is 5 ng/ml of human PAI-1 as determined from a standard curve ranging from 0-100 ng/ml.

T1 sequence (P05121 24-402): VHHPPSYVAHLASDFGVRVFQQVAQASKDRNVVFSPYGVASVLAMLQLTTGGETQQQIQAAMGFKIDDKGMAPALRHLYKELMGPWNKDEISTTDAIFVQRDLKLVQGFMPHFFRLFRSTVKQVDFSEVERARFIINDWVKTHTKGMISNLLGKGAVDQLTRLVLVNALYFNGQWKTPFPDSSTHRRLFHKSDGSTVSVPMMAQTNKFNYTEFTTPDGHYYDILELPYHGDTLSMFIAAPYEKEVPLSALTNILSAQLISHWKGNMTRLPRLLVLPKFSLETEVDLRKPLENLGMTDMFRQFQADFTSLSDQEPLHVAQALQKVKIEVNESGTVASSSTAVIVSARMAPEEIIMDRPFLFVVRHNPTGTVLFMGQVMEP
Sequence of human PAI-1 (P05121 24-402): as above

Row | inhibition at 10 µM [1] [%] | inhibition at 25 µM [1] [%] | IC50 (human PAI-1) [µM] | SMILES
1 | 24 | 69 |  | Cc1cccc(Nc2ccc3c(c2)c(-c2ccccc2)c(C(=O)O)n3Cc2ccccc2)c1 [Compound 1, 1-benzyl-5-[(3-methylphenyl)amino]-3-phenyl-1H-indole-2-carboxylic acid]
2 | 45 | 73 |  | CC(C)(C)c1ccc(Nc2ccc3c(c2)c(-c2ccccc2)c(C(=O)O)n3Cc2ccccc2)cc1 [Compound 2, 1-benzyl-5-[(4-tert-butylphenyl)amino]-3-phenyl-1H-indole-2-carboxylic acid]
3 | 36 | 71 |  | O=C(O)c1c(-c2ccccc2)c2cc(Nc3ccc(-c4ccccc4)cc3)ccc2n1Cc1ccccc1 [Compound 3, 1-benzyl-5-(1,1′-biphenyl-4-ylamino)-3-phenyl-1H-indole-2-carboxylic acid]
4 | 39 | 66 |  | O=C(O)c1c(-c2ccccc2)c2cc(Nc3cccc4c3sc3ccccc34)ccc2n1Cc1ccccc1 [Compound 4, 1-benzyl-5-(dibenzo[b,d]thien-4-ylamino)-3-phenyl-1H-indole-2-carboxylic acid]
5 | 52 | 80 | 12 | CC(C)(C)c1ccc(Nc2ccc3c(c2)c(-c2ccccc2)c(C(=O)O)n3Cc2ccc(-c3ccccc3)cc2)cc1 [Compound 5, 1-(1,1′-biphenyl-4-ylmethyl)-5-[(4-tert-butylphenyl)amino]-3-phenyl-1H-indole-2-carboxylic acid]
